Consider 29 compounds from patent US20140038989A1, “TETRAHYDROPYRAZOLO [1,5-A] PYRIMIDINE AS ANTI-TUBERCULOSIS COMPOUNDS” (Glaxo Group Limited, priority 2011, published 2014).

Each structure is given as a SMILES string. Values after ≈ are worked out from the molar mass of the structure shown.

The test system of this experiment is Mycobacterium tuberculosis H37Rv. Description: Mycobacterium tuberculosis H37Rv Inhibition Assay (Whole Cell Assay). It counts as cell-based. The following applies: ATCC 25618 / H37Rv, H37Rv strain (ATCC25618), Middlebrook 7H9, six days at 37° C., resazurin fluorescence after 48 hours. On the technique in general: Resazurin is reduced to fluorescent resorufin, in cell work by metabolically active cells.
`O=C(NCc1ccc2c(c1)OCO2)c1cnn2c1N[C@@H](c1ccc(Br)cc1)C[C@H]2C(F)(F)F` (relative stereo) [Example 22, Cis-N-(benzo[d][1,3]dioxol-5-ylmethyl)-5-(4-bromophenyl)-7-(trifluoromethyl)-4,5,6,7-tetrahydropyrazolo[1,5-a]pyrimidine-3-carboxamide]: the MIC is ≤ 1 µM.

For `COc1ccc(CNC(=O)c2cnn3c2N[C@@H](c2ccc(Br)cc2)C[C@H]3C(F)(F)F)cc1` (relative stereo) [Example 42, Cis-5-(4-bromophenyl)-N-(4-methoxybenzyl)-7-(trifluoromethyl)-4,5,6,7-tetrahydropyrazolo[1,5-a]pyrimidine-3-carboxamide], the MIC was > 2 µM.

Consider `Cc1ccc([C@H]2C[C@@H](C(F)(F)F)n3ncc(C(=O)NCc4ccco4)c3N2)cc1` (relative stereo) [56′, Cis-N-(furan-2-ylmethyl)-5-(p-tolyl)-7-(trifluoromethyl)-4,5,6,7-tetrahydropyrazolo[1,5-a]pyrimidine-3-carboxamide, reference compound], for which the MIC was > 2 µM.

Take `CCc1ccc([C@H]2C[C@@H](C(F)(F)F)n3ncc(C(=O)NCc4ccccc4F)c3N2)cc1` (relative stereo) [Example 62, Cis-5-(4-ethylphenyl)-N-(2-fluorobenzyl)-7-(trifluoromethyl)-4,5,6,7-tetrahydropyrazolo[1,5-a]pyrimidine-3-carboxamide]: the MIC is ≤ 1 µM.

Consider `Cc1ccc([C@H]2C[C@@H](C(F)(F)F)n3ncc(C(=O)NCc4ccc5c(c4)OCCO5)c3N2)cc1` (relative stereo) [Example 50, Cis-N-((2,3-dihydrobenzo[b][1,4]dioxin-6-yl)methyl)-5-(p-tolyl)-7-(trifluoromethyl)-4,5,6,7-tetrahydropyrazolo[1,5-a]pyrimidine-3-carboxamide], for which the MIC was > 2 µM.

For `CCc1ccc(C2CC(C(F)(F)F)n3ncc(C(=O)NCc4cccs4)c3N2)cc1` (centres unmarked) [Example 40, 5-(4-ethylphenyl)-N-(thiophen-2-ylmethyl)-7-(trifluoromethyl)-4,5,6,7-tetrahydropyrazolo[1,5-a]pyrimidine-3-carboxamide], the MIC is ≤ 1 µM.

With `CCc1ccc([C@H]2C[C@@H](C(F)(F)F)n3ncc(C(=O)NCc4cc(F)cc(F)c4)c3N2)cc1` (relative stereo) [Example 17, Cis-N-[(3,5-difluorophenyl)methyl]-5-(4-ethylphenyl)-7-(trifluoromethyl)-4,5,6,7-tetrahydropyrazolo[1,5-a]pyrimidine-3-carboxamide], the MIC was ≤ 1 µM.

On to `COc1ccc(C2CC(C(F)(F)F)n3ncc(C(=O)NCc4ccc5c(c4)OCO5)c3N2)cc1` (centres unmarked) [Example 41, N-(benzo[d][1,3]dioxol-5-ylmethyl)-5-(4-methoxyphenyl)-7-(trifluoromethyl)-4,5,6,7-tetrahydropyrazolo[1,5-a]pyrimidine-3-carboxamide], for which the MIC is ≤ 1 µM.

The compound `COc1cccc(CNC(=O)c2cnn3c2N[C@@H](c2ccc(C)cc2)C[C@H]3C(F)(F)F)c1` (relative stereo) [Example 27, Cis-N-(3-methoxybenzyl)-5-(p-tolyl)-7-(trifluoromethyl)-4,5,6,7-tetrahydropyrazolo[1,5-a]pyrimidine-3-carboxamide] showed an MIC of 1 to 2 µM (≈ 0.444 to 0.889 µg/mL).

For the compound `COc1ccc(C2CC(C(F)(F)F)n3ncc(C(=O)NCc4ccccc4)c3N2)cc1` (centres unmarked) [Example 53, N-benzyl-5-(4-methoxyphenyl)-7-(trifluoromethyl)-4,5,6,7-tetrahydropyrazolo[1,5-a]pyrimidine-3-carboxamide], the MIC was > 2 µM.

As for `Cc1ccc([C@H]2C[C@@H](C(F)(F)F)n3ncc(C(=O)NCc4ccc(F)c(F)c4)c3N2)cc1` (relative stereo) [Example 31, Cis-N-(3,4-difluorobenzyl)-5-(p-tolyl)-7-(trifluoromethyl)-4,5,6,7-tetrahydropyrazolo[1,5-a]pyrimidine-3-carboxamide], the MIC was ≤ 1 µM.

In turn, `CCc1ccc([C@H]2C[C@@H](C(F)(F)F)n3ncc(C(=O)NCc4ccc(Cl)nc4)c3N2)cc1` (relative stereo) [Example 76, Cis-N-((6-chloropyridin-3-yl)methyl)-5-(4-ethylphenyl)-7-(trifluoromethyl)-4,5,6,7-tetrahydropyrazolo[1,5-a]pyrimidine-3-carboxamide] showed an MIC of 1 to 2 µM (≈ 0.464 to 0.928 µg/mL).

`CCc1ccc([C@H]2C[C@@H](C(F)(F)F)n3ncc(C(=O)NCc4ccccc4OC)c3N2)cc1` (relative stereo) [Example 45, Cis-5-(4-ethylphenyl)-N-(2-methoxybenzyl)-7-(trifluoromethyl)-4,5,6,7-tetrahydropyrazolo[1,5-a]pyrimidine-3-carboxamide]: the MIC is > 2 µM.

`CCc1ccc(C2CC(C(F)(F)F)n3ncc(C(=O)NCc4ccc5c(c4)OCO5)c3N2)cc1` (centres unmarked) [Example 37, N-(benzo[d][1,3]dioxol-5-ylmethyl)-5-(4-ethylphenyl)-7-(trifluoromethyl)-4,5,6,7-tetrahydropyrazolo[1,5-a]pyrimidine-3-carboxamide]: the MIC was ≤ 1 µM.

The compound `CCc1ccc([C@H]2C[C@@H](C(F)(F)F)n3ncc(C(=O)NCc4ccc5c(c4)OCCO5)c3N2)cc1` (relative stereo) [Example 18, Cis-N-(2,3-dihydro-1,4-benzodioxin-6-ylmethyl)-5-(4-ethylphenyl)-7-(trifluoromethyl)-4,5,6,7-tetrahydropyrazolo[1,5-a]pyrimidine-3-carboxamide] had an MIC of 1 to 2 µM (≈ 0.486 to 0.973 µg/mL).

Consider `CCc1ccc([C@H]2C[C@@H](C(F)(F)F)n3ncc(C(=O)NCc4ccc(C)nc4)c3N2)cc1` (relative stereo) [Example 19, Cis-5-(4-ethylphenyl)-N-((6-methylpyridin-3-yl)methyl)-7-(trifluoromethyl)-4,5,6,7-tetrahydropyrazolo[1,5-a]pyrimidine-3-carboxamide], for which the MIC lay within 1 to 2 µM (≈ 0.443 to 0.887 µg/mL).

As to `CCc1ccc([C@H]2C[C@@H](C(F)(F)F)n3ncc(C(=O)NCc4cccn4C)c3N2)cc1` (relative stereo) [Example 10, Cis-5-(4-ethylphenyl)-N-[(1-methyl-1H-pyrrol-2-yl)methyl]-7-(trifluoromethyl)-4,5,6,7-tetrahydropyrazolo[1,5-a]pyrimidine-3-carboxamide], the MIC was in the range of 1 to 2 µM (≈ 0.431 to 0.863 µg/mL).

In the case of `CCc1ccc([C@H]2C[C@@H](C(C)(C)C)n3ncc(C(=O)NCc4ccc(OC)cc4)c3N2)cc1` (relative stereo) [Example 35, Cis-7-(tert-butyl)-5-(4-ethylphenyl)-N-(4-methoxybenzyl)-4,5,6,7-tetrahydropyrazolo[1,5-a]pyrimidine-3-carboxamide], the MIC is ≤ 1 µM.

As to `CCc1ccc([C@H]2C[C@@H](C(F)(F)F)n3ncc(C(=O)NCC4CCCCC4)c3N2)cc1` (relative stereo) [Example 5, Cis-N-(cyclohexylmethyl)-5-(4-ethylphenyl)-7-(trifluoromethyl)-4,5,6,7-tetrahydropyrazolo[1,5-a]pyrimidine-3-carboxamide], the MIC is ≤ 1 µM.

As for `CCc1ccc([C@H]2C[C@@H](C(F)F)n3ncc(C(=O)NCc4ccc5c(c4)OCO5)c3N2)cc1` (relative stereo) [Example 34, Cis-N-(benzo[d][1,3]dioxol-5-ylmethyl)-7-(difluoromethyl)-5-(4-ethylphenyl)-4,5,6,7-tetrahydropyrazolo[1,5-a]pyrimidine-3-carboxamide], the MIC was ≤ 1 µM.

As for `CCc1ccc([C@H]2C[C@@H](C(F)(F)F)n3ncc(C(=O)NCc4ccc(OC)nc4)c3N2)cc1` [Example 102, (5R,7S)-5-(4-ethylphenyl)-N-((6-methoxypyridin-3-yl)methyl)-7-(trifluoromethyl)-4,5,6,7-tetrahydropyrazolo[1,5-a]pyrimidine-3-carboxamide], the MIC was ≤ 1 µM.

With `CCc1ccc([C@H]2C[C@@H](C(F)F)n3ncc(C(=O)NCc4ccc(C)cc4)c3N2)cc1` (relative stereo) [Example 33, Cis-7-(difluoromethyl)-5-(4-ethylphenyl)-N-(4-methylbenzyl)-4,5,6,7-tetrahydropyrazolo[1,5-a]pyrimidine-3-carboxamide], the MIC is ≤ 1 µM.

In the case of `CCc1ccc([C@H]2C[C@@H](C(F)(F)F)n3ncc(C(=O)NCc4ccc(F)cc4F)c3N2)cc1` (relative stereo) [Example 59, Cis-N-[(2,4-difluorophenyl)methyl]-5-(4-ethylphenyl)-7-(trifluoromethyl)-4,5,6,7-tetrahydropyrazolo[1,5-a]pyrimidine-3-carboxamide], the MIC was ≤ 1 µM.

Take `Cc1ccc(CNC(=O)c2cnn3c2NC(c2ccc(C)cc2)CC3C(F)F)cc1` (centres unmarked) [Example 51, 7-(difluoromethyl)-N-(4-methylbenzyl)-5-(p-tolyl)-4,5,6,7-tetrahydropyrazolo[1,5-a]pyrimidine-3-carboxamide]: the minimal inhibitory concentration (MIC) is > 2 µM.

For `CCc1ccc([C@H]2C[C@@H](C(C)(F)F)n3ncc(C(=O)NCc4ccc(C)cc4)c3N2)cc1` (relative stereo) [Example 68, Cis-7-(1,1-difluoroethyl)-5-(4-ethylphenyl)-N-(4-methylbenzyl)-4,5,6,7-tetrahydropyrazolo[1,5-a]pyrimidine-3-carboxamide], the MIC is ≤ 1 µM.

For the compound `CCc1ccc([C@H]2C[C@@H](C(F)(F)F)n3ncc(C(=O)NCc4ccco4)c3N2)cc1` (single isomer, unassigned) [Example 7a], the MIC was ≤ 1 µM.

Take `CCc1ccc([C@H]2C[C@@H](C(F)(F)F)n3ncc(C(=O)NCc4ccc(OC)cc4)c3N2)cc1` (single isomer, unassigned) [Example 1a]: the MIC is ≤ 1 µM.

Take `Cc1ccc(C2CC(C(F)F)n3ncc(C(=O)NCc4ccccc4C(F)(F)F)c3N2)cc1` (centres unmarked) [Example 55, 7-(difluoromethyl)-5-(p-tolyl)-N-(2-(trifluoromethyl)benzyl)-4,5,6,7-tetrahydropyrazolo[1,5-a]pyrimidine-3-carboxamide]: the MIC was > 2 µM.

For `CCc1ccc([C@H]2C[C@@H](C(F)(F)F)n3ncc(C(=O)NCc4ncc(F)cc4F)c3N2)cc1` (relative stereo) [Example 70, Cis N-((3,5-difluoropyridin-2-yl)methyl)-5-(4-ethylphenyl)-7-(trifluoromethyl)-4,5,6,7-tetrahydropyrazolo[1,5-a]pyrimidine-3-carboxamide], the MIC was ≤ 1 µM.

The MIC is the least concentration at which growth counts as inhibited. Read a high MIC as weaker potency.
